Tests used:
[1] = test system: F9 teratocarcinoma cells; assay: Northern blot of mRAR RNAs in F9 cells after RA treatment (densitometric scanning); assay type: cell-based, mouse
[2] = test system: hRAR-γ (human retinoic acid receptor γ, hRAR-γD cDNA in pSG5 = hRAR-γ0); assay: RA-dependent transcriptional activation of (TRE₃)₃-tk-CAT reporter by hRAR-γ0 in HeLa cells (CAT activity); assay type: cell-based; conditions: data not shown
Protocol: To test the ability of hRAR-γ to activate transcription, hRAR-γD cDNA was subcloned into the eukaryotic expression vector pSG5 [Green, S., Issemann, I. & Scheer, E. Nucleic Acids Res. 16, 369 (1988)] as described in Example 6, to give hRAR-γ0 which was co-transfected into HeLa cells along with a reporter plasmid, (TRE₃)₃-tk-CAT, which contains a synthetic RA responsive element as described in Example 6. The transfected cells were exposed (24 hour post transfection) to increasing concentrations of RA, and RA-induced activation of transcription was evaluated 48 hours after transfection by determining the CAT activity expressed from the reporter gene.
The entire 1.5 kb insert from the hRAR-γD clone was inserted into the EcoRI site of the eukaryotic expression vector pSG5 [Green, S., Issemann, I. & Scheer, E. Nucleic Acids Res. 16, 369 (1988)], to yield hRAR-γ0. 500 ng of hRAR-γ0 was transfected into HeLa cells along with 2 µg of the (TRE₃)₃-tk-CAT reporter plasmid, 2 µg of a β-galactosidase expressing plasmid pCH110 (to normalize for variations in transfection efficiency) and 15 µg of carrier DNA (BSM13+) as described [Petkovich, M., Brand, N. J., Krust, A. & Chambon, P. Nature 330, 444-450 (1987)]. 24 hours following transfection, the cells were exposed for an additional 24 hour to RA for retinol with concentrations ranging from 10⁻¹¹M to 10⁻⁶. […]

[3] = test system: mRAR-γ (mouse retinoic acid receptor γ, expression vector mRAR-γO); assay: RA-dependent transcriptional transactivation of (TRE₃)₃-tk-CAT reporter in co-transfected HeLa cells (CAT activity); assay type: cell-based; conditions: same concentrations as RA; data not shown
Text: (§1) (mRAR-αO, mRAR-βO and mRAR-γO, respectively) and co-transfected into HeLa cells with a reporter plasmid, (TRE₃)₃-tk-CAT, containing a RA responsive element. […] In Fig. 3 HeLa cells were co-transfected as described in example 2 [Petkovich, M., Brand, N. J., Krust, A. & Chambon, P. Nature 330, 444-450 (1987); Brand, N., Petkovich, M., Krust, A., Chambon, P., de The, H., Marchio, A., Tiollais, P. & Dejean, A. Nature 332, 850-853 (1988)] with pSG5-based expression vectors [Green, S., Issemann, I. & Scheer, E. Nucleic Acids Res. 16, 369 (1988)] containing the entire cDNA of either mRAR-α (mRAR-αO), β (mRAR-βO) or γ (mRAR-γO), and a reporter plasmid, (TRE₃)₃-tk-CAT, carrying a synthetic RA responsive element (RARE). 24 hours after transfection, cells were fed with media containing increasing concentrations of RA as indicated (from 0 to 1x10⁻⁶ M, lanes 1-8, respectively) and harvested 48 hours post-transfection for determination of CAT activity. […] No obvious difference was observed between the dose responsiveness of mRAR-α and β, in contrast with previous results obtained with human chimeric constructs in which the C region of hRAR-α and β was replaced by the corresponding region of the human oestrogen receptor [Brand, N., Petkovich, M., Krust, A., Chambon, P., de The, H., Marchio, A., Tiollais, P. & Dejean, A. Nature 332, 850-853 (1988)]. The reason for these differences is unknown, but may be related to the use of a different and less sensitive responsive element in the present study. Direct determination of the true affinity of RAR-α, β and γ for RA must await direct binding measurements in vitro in the absence of the cellular retinoic acid binding protein.
(§2) HeLa cells (∼ 10⁶ per dish) were co-transfected with 0.5 µg of a given mRAR expression vector, 2 µg of reporter plasmid and 2 µg of pCH110 (Pharmacia, a β-galactosidase expression vector used as an internal control to normalize for variations in transfection efficiency). The total amount of transfected DNA was adjusted to 20µg by addition of carrier DNA (BSM13+). […]

[4] = test system: mRAR-α (mouse retinoic acid receptor α, expression vector mRAR-αO); assay: as above; assay type: cell-based; conditions: same concentrations as RA; data not shown
Text: as §1, §2

[5] = test system: mRAR-β (mouse retinoic acid receptor β, expression vector mRAR-βO); assay: as above; assay type: cell-based; conditions: same concentrations as RA; data not shown
Text: as §1, §2

Row | Structure (SMILES) | fold induction at 0.33 µM ([1]; Mus musculus, F9, read-out: induction of mRAR-β RNA) | decrease of mRAR-γ RNA ([1]; RA 3.3x10⁻⁷M, 24 and 48 hours) | potency as activator compared with all-trans or 13-cis retinoic acid [2] | transactivation efficiency compared with RA [3] | transactivation efficiency compared with RA [4] | transactivation efficiency compared with RA [5]
1 | CC1=C(/C=C/C(C)=C/C=C/C(C)=C/C(=O)O)C(C)(C)CCC1 [RA, retinoic acid] | ≥ 30 | 2 fold |  |  |  | 
2 | CC1=C(/C=C/C(C)=C/C=C/C(C)=C/CO)C(C)(C)CCC1 [retinol] |  |  | much less potent activator | much less efficient | much less efficient | much less efficient
